Reference: US20230330053A1, “METHOD FOR TREATING INFECTIONS” (priority 2020, published 2023)
“Also recorded” adds a separate entry of the source.

Key:
[1] = system: SARS-CoV-2 (USA-WA1/2020 strain); assay: Direct injection into SARS-CoV-2 viral suspension, plaque assay on Vero E6 cells; type: cell-based; conditions: for Effect on viral burden at the lower volumes: formula 2 and 5 μls, or corresponding propionic acid 1.4 and 3.9 μls, isoamyl hexanoates 0.6 and 1.1 μls
[2] = system: SARS-CoV-2; assay: Sx direct injection into SARS-CoV-2 suspension in MEM, Vero E6 plaque assay; type: cell-based
[3] = target: receptor binding domain (RBD) of the SARS-CoV-2 spike protein to ACE2 (Severe acute respiratory syndrome coronavirus 2, UniProt P0DTC2); conditions: cited from earlier work

Molecule | Decline in viral burden after 360 mins post-addition ([1]; 37° C., 1.4 μls alone) | Decline in viral burden after 360 mins post-addition ([1]; 37° C., 3.9 μls alone) | Effect on viral burden at the lower volumes [1] | Volume necessary for a relative immediate inactivation of the virus ([2]; acid alone) | Volume necessary to get any appreciable activity ([2]; acid alone) | Reduction of activity on adding peptide to the virus [3] | Suppression of SARS-CoV-2 by the component alone ([1]; 37° C., all treatment arms) | Reduction in activity of the virus ([2]; 1.1 μL alone, at about 100 min) | Virus activity after 300 min relative to control ([2]; esters alone) | General reduction in virus activity within about 30 min ([2]; esters alone, over the range of concentrations tested) | Reduction in activity over the course of 300 minutes ([2]; highest concentration of 4.6 μL alone)
CCC(=O)O [propionic acid] | 0.29 log10 PFU/ml | 0.98 log10 PFU/ml | minimal reduction of viral burden | at least 15.4 μL | up to 7.7 μL |  |  |  |  |  | 
GluGluLeuGlu |  |  |  |  |  | 34% |  |  |  |  | 
isoamyl hexanoates |  |  | minimal reduction of viral burden |  |  |  | substantially less effective | ~1 log | about equaled that of the control; also recorded: approximately equaled that of the control | ~1 log | 1 order of magnitude
